Test system in the first data set: not given
Assay: not given
Details: not given
With `Cc1cc2nn[nH]c2c(C(N)=O)c1NC(=O)c1cc(OCC(F)(F)F)nn1-c1ncccc1Cl`, the melting point (commonly the temperature of the solid-liquid transition) is 142.2 to 160.3 °C.

In the case of `Cc1cc2cn[nH]c2c(C(N)=O)c1NC(=O)c1cc(Cn2nnc(C(F)(F)F)n2)nn1-c1ncccc1Cl`, the melting point is 233 to 240 °C.

For `Cc1nc2cc(C)c(NC(=O)c3cc(Br)nn3-c3ncccc3Cl)c(C(N)=O)c2o1`, the melting point was over 250 °C.

Molecule `Cc1cc2c(c(C(N)=O)c1NC(=O)c1cc(OCC(F)(F)F)nn1-c1ncccc1Cl)OC(F)(F)O2` came in with a melting point of 240 to 245 °C.

For `Cc1cc2nn[nH]c2c(C(N)=O)c1NC(=O)c1cc(OC(F)F)nn1-c1ncccc1Cl`, the melting point fell in the range of 147.5 to 161.2 °C.

A further data set relates to Plutella xylostella (Diamond back moth) ryanodine receptor, containing the G4946E resistance mutation. Description: In vitro calcium fluorescence assay (Fluo-8 NW, FDSS) in human embryonic kidney cells expressing the ryanodine receptor. It counts as cell-based. To be noted: HEK cells expressing P. xylostella RyR G4946E; EC50 normalized against in-assay reference cyantraniliprole; ratio <=1 means equally or more active. The procedure:
Human embryonic kidney cells expressing the Plutella xylostella (Diamond back moth) ryanodine receptor, containing the G4946E resistance mutation, are loaded with Fluo-8 No Wash (NW) calcium-sensitive dye which responds by fluorescence to a change in intracellular calcium (e.g. stimulated by activation of ryanodine receptor). Test compounds are added in 10 rates to a 384-well plate containing dye-loaded cells and the fluorescent signal is measured using the Hamamatsu FDSS (Functional Drug Screening system). Dose-response curves are plotted to estimate the EC50. EC50 are normalized against an in-assay reference standard (cyantraniliprole) to address inter-assay variability. The ratio for a given compound is then obtained by the following formula: REC50=EC50 (compound)/EC50 (cyantraniliprole).
Turning to `Cc1cc2c(c(C(=O)NC(C)C)c1NC(=O)c1cc(C(F)(F)F)nn1-c1ncccc1Cl)OC(F)(F)O2` [2-(3-chloro-2-pyridyl)-N-[2,2-difluoro-4-(isopropylcarbamoyl)-6-methyl-1,3-benzodioxol-5-yl]-5-(trifluoromethyl)pyrazole-3-carboxamide], the “REC50 = EC50 (compound)/EC50 (cyantraniliprole)” value (“REC50 = EC50 (compound)/EC50” for short) stood at 7.27.

Consider `CNC(=O)c1c(NC(=O)c2cc(C(F)(F)F)nn2-c2ncccc2Cl)c(C)cc2c1OC(F)(F)O2` [2-(3-chloro-2-pyridyl)-N-[2,2-difluoro-6-methyl-4-(methylcarbamoyl)-1,3-benzodioxol-5-yl]-5-(trifluoromethyl)pyrazole-3-carboxamide], for which the “REC50 = EC50 (compound)/EC50” value is listed as 4.65.

`CNC(=O)c1c(NC(=O)c2cc(Cn3cc(C(F)(F)F)nn3)nn2-c2ncccc2Cl)c(C)cc2c1OC(F)(F)O2` [2-(3-chloro-2-pyridyl)-N-[2,2-difluoro-6-methyl-4-(methylcarbamoyl)-1,3-benzodioxol-5-yl]-5-[[4-(trifluoromethyl)triazol-1-yl]methyl]pyrazole-3-carboxamide]: the “REC50 = EC50 (compound)/EC50” value is listed as 2.55.

Regarding `CNC(=O)c1c(NC(=O)c2cc(Cn3ncc(C(F)(F)F)n3)nn2-c2ncccc2Cl)c(C)cc2c1OC(F)(F)O2` [2-(3-chloro-2-pyridyl)-N-[2,2-difluoro-6-methyl-4-(methylcarbamoyl)-1,3-benzodioxol-5-yl]-5-[[4-(trifluoromethyl)triazol-2-yl]methyl]pyrazole-3-carboxamide], the “REC50 = EC50 (compound)/EC50” value is given as 6.26.

`CNC(=O)c1c(NC(=O)c2cc(Cn3nnc(C(F)(F)F)n3)nn2-c2ncccc2Cl)c(C)cc2c1OC(F)(F)O2` [2-(3-chloro-2-pyridyl)-N-[2,2-difluoro-6-methyl-4-(methylcarbamoyl)-1,3-benzodioxol-5-yl]-5-[[5-(trifluoromethyl)tetrazol-2-yl]methyl]pyrazole-3-carboxamide]: the “REC50 = EC50 (compound)/EC50” value was found to be 5.77.

On to `Cc1cc2c(c(C(N)=O)c1NC(=O)c1cc(C(F)(F)F)nn1-c1ncccc1Cl)OC(F)(F)O2` [Compound P19, N-(4-carbamoyl-2,2-difluoro-6-methyl-1,3-benzodioxol-5-yl)-2-(3-chloro-2-pyridyl)-5-(trifluoromethyl)pyrazole-3-carboxamide], for which the “REC50 = EC50 (compound)/EC50” value came to 0.50.

In the case of `Cc1cc2c(c(C(N)=O)c1NC(=O)c1cc(Cn3ncc(C(F)(F)F)n3)nn1-c1ncccc1Cl)OC(F)(F)O2` [Compound P21, N-(4-carbamoyl-2,2-difluoro-6-methyl-1,3-benzodioxol-5-yl)-2-(3-chloro-2-pyridyl)-5-[[4-(trifluoromethyl)triazol-2-yl]methyl]pyrazole-3-carboxamide], the “REC50 = EC50 (compound)/EC50” value came out at 0.55.

On to `Cc1cc2c(c(C(N)=O)c1NC(=O)c1cc(Cn3cc(C(F)(F)F)nn3)nn1-c1ncccc1Cl)OC(F)(F)O2` [Compound P22, N-(4-carbamoyl-2,2-difluoro-6-methyl-1,3-benzodioxol-5-yl)-2-(3-chloro-2-pyridyl)-5-[[4-(trifluoromethyl)triazol-1-yl]methyl]pyrazole-3-carboxamide], for which the “REC50 = EC50 (compound)/EC50” value is given as 0.91.

As for `Cc1cc2c(c(C(N)=O)c1NC(=O)c1cc(Cn3nnc(C(F)(F)F)n3)nn1-c1ncccc1Cl)OC(F)(F)O2` [Compound P24, N-(4-carbamoyl-2,2-difluoro-6-methyl-1,3-benzodioxol-5-yl)-2-(3-chloro-2-pyridyl)-5-[[5-(trifluoromethyl)tetrazol-2-yl]methyl]pyrazole-3-carboxamide], the “REC50 = EC50 (compound)/EC50” value was 0.34.

The subject of another data set is Resistant Plutella xylostella R4 (RyR mutation G4946E). Description: Resistant Plutella xylostella R4 (Diamond back moth) larvicide L1, feeding/contact. It counts as in vivo. The following applies: CTPR used as standard. The method, then:
Resistant Plutella xylostella R4 (Diamond back moth) larvicide L1, feeding/contact 24-well microtiter plates with artificial diet were treated with aqueous test solutions prepared from 10,000 ppm DMSO stock solutions by pipetting. After drying, around 30 Plutella eggs were pipetted through a plastic stencil onto a gel blotting paper and the plate was closed with it. The samples were assessed for mortality in comparison to untreated samples 8 days after infestation. CTPR was used as standard and a resistance factor of 242 was obtained for this strain
Plutella xylostella resistant strain R4 originated in the lab in 2021 from crossing the R1 strain with a lab-reared susceptible P. xylostella strain (SUS). R4 can be reared and tested on artificial diet and also carries the RyR mutation G4946E conferring resistance to diamides. The strain is selected approximately every two weeks with chlorantraniliprole.
As for `CNC(=O)c1cc(Cl)cc(C)c1NC(=O)c1cc(Br)nn1-c1ncccc1Cl` [CTPR, chlorantraniliprole], the “resistance factor obtained for strain R4” value is reported as 242.

Another data set has as its system Resistant Plutella xylostella R1 (G4946E resistance mutation). Description: Resistant Plutella xylostella R1 (Diamond back moth) larvicide L3, feeding/contact. The class given is in vivo. The following applies: CTPR used as standard. The method, then:
Resistant Plutella xylostella R1 (Diamond back moth) larvicide L3, feeding/contact Chinese cabbage plants were sprayed with diluted test solutions in an application chamber. Cut off leaves were placed into petri dishes with wetted filter paper and infested 1 day after application with 10 L3 multi-resistant Plutella xylostella larvae having the G4946E resistance mutation. Samples were assessed 4 days after infestation for mortality and growth regulation. CTPR was used as standard and a resistance factor of 146 was obtained for this strain.
Plutella xylostella resistant strain R1 originally collected from Taiwan in 2012 that carries the RyR mutation G4946E conferring resistance to diamides. The strain is reared on cabbage plants (Brassica oleracea) and selected approximately every two weeks with chlorantraniliprole.
`CNC(=O)c1cc(Cl)cc(C)c1NC(=O)c1cc(Br)nn1-c1ncccc1Cl` [CTPR, chlorantraniliprole]: the “resistance factor obtained for strain R1” value came to 146.

Values taken from patent US20240324594A1, “Method for Controlling Diamide Resistant Pests and Compounds Therefor” (priority 2021, published 2024).
